Reference: patent publication US10533006B2, “Nitrogen-containing heterocycle and carbocycle derivatives having TrkA inhibitory activity” (Shionogi & Co., Ltd., priority 2016, dated 2020)
Like-named read-outs stand apart in the source and are kept apart here.

What was measured:
CYP3A4 = target: T1, CYP3A4 (Homo sapiens, UniProt P08684); assay: CYP3A4 (MDZ) MBI test; type: in vitro ADME; settings: pooled human liver microsomes, midazolam 1-hydroxylation, preincubation 0 vs 30 min
T1 construct: from tissue; host or cells: pooled human liver microsomes
Protocol: CYP3A4 (MDZ) MBI test is a test of investigating mechanism based inhibition potential on CYP3A4 by the enhancement of inhibitory degree of a metabolic reaction caused by the compound of the present invention. CYP3A4 inhibition was evaluated using pooled human liver microsomes by 1-hydroxylation reaction of midazolam (MDZ) as a marker reaction.
The reaction conditions are as follows: substrate, 10 μmol/L MDZ; pre-reaction time, 0 or 30 minutes; substrate reaction time, 2 minutes; reaction temperature, 37° C.; protein content of pooled human liver microsomes, at pre-reaction time 0.5 mg/mL, at reaction time […] (at 10-fold dilution); concentrations of the compound of the present invention, 1, 5, 10, 20 μmol/L (four points).
Pooled human liver microsomes and a solution of the compound of the present invention in K-Pi buffer (pH 7.4) as a pre-reaction solution were added to a 96-well plate at the composition of the pre-reaction. A part of pre-reaction solution was transferred to another 96-well plate, and 1/10 diluted by K-Pi buffer containing a substrate. NADPH as a co-factor was added to initiate a reaction as a marker reaction (preincubation 0 min). After a predetermined time of a reaction, methanol/acetonitrile=l/1 (v/v) solution was added to stop the reaction. In addition, NADPH was added to a remaining pre-reaction solution to initiate a pre-reaction (preincubation 30 min). After a predetermined time of a pre-reaction, a part was transferred to another 96-well plate, and 1/10 diluted by K-Pi buffer containing a substrate to initiate a reaction as a marker reaction. After a predetermined time of a reaction, methanol/acetonitrile=1/1 (v/v) solution was added to stop the reaction. After centrifuged at 3000 rpm for 15 minutes, 1-hydroxymidazolam in the supernatant was quantified by LC/MS/MS.
The sample adding DMSO as a solvent to a reaction system instead of a solution dissolving the compound of the present invention was adopted as a control (100%). Remaining activity (%) was calculated at each concentration of the compound of the present invention compared to a control, and IC value was calculated by reverse-presumption by a logistic model using a concentration and an inhibition rate. Shifted IC value was calculated as “IC of preincubation at 0 min/IC of preincubation at 30 min”. When a shifted IC is 1.5 or more, this is defined as positive. When a shifted IC is 1.0 or less, this is defined as negative.

human TrkA = target: T2, human TrkA (Homo sapiens, UniProt P04629); assay: Human TrkA inhibition assay; type: biochemical; settings: human TrkA phosphorylation inhibition, ATP 500 μmol/L
T2 construct: purchased Lifetechnologies PV3144
Outline: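 Human TrkA (1 nmol/L final) preincubated 15 min with compound, then FL-peptide 27 (1.5 μmol/L) and ATP (500 μmol/L) added; 120 min at 37 °C in HEPES/MgCl2/DTT buffer. Mobility-shift measurement of phosphorylated vs non-phosphorylated substrate; IC50 by logistic regression over 3-fold dilution series.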

hERG channel (IKr) = target: T3, hERG channel (IKr) (Homo sapiens, UniProt Q12809); assay: hERG test (whole cell patch clamp, IKr); type: cell-based; settings: CHO cells expressing hERG channel, read-out: % inhibition of tail peak current (IKr); for inhibition at 30 μmol/L: pH 7.4, 30 μmol/L of test compound; for inhibition at 5 μmol/L: pH 7.4, 5 μmol/L of test compound; for inhibition at 10 μmol/L: pH 7.4, 10 μmol/L of test compound
T3 construct: expressed in transfected cells; host or cells: CHO cells
Description: For the purpose of assessing risk of an electrocardiogram QT interval prolongation of the compound of the present invention, effects of the compound of the present invention on delayed rectifier K+ current (IKr), which plays an important role in the ventricular repolarization process, was studied using CHO cells expressing human ether-a-go-go related gene (hERG) channel.
After a cell was retained at a membrane potential of −80 mV by whole cell patch clamp method using an automated patch clamp system (QPatch; Sophion Bioscience A/S) and gave a leak potential of −50 mV, IKr induced by depolarization pulse stimulation at +20 mV for 2 seconds, and further, repolarization pulse stimulation at −50 mV for 2 seconds, was recorded. A vehicle, which is the 0.1-0.3% dimethyle sulfoxide solution in extracellular solution (NaCl: 145 mmol/L, KCl: 4 mmol/L, CaCl2: 2 mmol/L, MgCl2: 1 mmol/L, glucose: 10 mmol/L, HEPES (4-(2-hydroxyethyl)-1-piperazineethanesulfonic acid): 10 mmol/L, pH7.4), or the compound of the present invention had been dissolved at an objective concentration in the extracellular solution is applied to the cell at room temperature for 7 minutes or more. From the recording IKr, an absolute value of the tail peak current was measured based on the current value at the resting membrane potential using analysis software (QPatch assay software; Sophion Bioscience A/S). Further, the % inhibition of tail peak current for the compound of the present invention relative to the tail peak current after application of the vehicle is calculated to assess influence of the compound of the present invention on IKr.

T3 sequence (Q12809 whole entry): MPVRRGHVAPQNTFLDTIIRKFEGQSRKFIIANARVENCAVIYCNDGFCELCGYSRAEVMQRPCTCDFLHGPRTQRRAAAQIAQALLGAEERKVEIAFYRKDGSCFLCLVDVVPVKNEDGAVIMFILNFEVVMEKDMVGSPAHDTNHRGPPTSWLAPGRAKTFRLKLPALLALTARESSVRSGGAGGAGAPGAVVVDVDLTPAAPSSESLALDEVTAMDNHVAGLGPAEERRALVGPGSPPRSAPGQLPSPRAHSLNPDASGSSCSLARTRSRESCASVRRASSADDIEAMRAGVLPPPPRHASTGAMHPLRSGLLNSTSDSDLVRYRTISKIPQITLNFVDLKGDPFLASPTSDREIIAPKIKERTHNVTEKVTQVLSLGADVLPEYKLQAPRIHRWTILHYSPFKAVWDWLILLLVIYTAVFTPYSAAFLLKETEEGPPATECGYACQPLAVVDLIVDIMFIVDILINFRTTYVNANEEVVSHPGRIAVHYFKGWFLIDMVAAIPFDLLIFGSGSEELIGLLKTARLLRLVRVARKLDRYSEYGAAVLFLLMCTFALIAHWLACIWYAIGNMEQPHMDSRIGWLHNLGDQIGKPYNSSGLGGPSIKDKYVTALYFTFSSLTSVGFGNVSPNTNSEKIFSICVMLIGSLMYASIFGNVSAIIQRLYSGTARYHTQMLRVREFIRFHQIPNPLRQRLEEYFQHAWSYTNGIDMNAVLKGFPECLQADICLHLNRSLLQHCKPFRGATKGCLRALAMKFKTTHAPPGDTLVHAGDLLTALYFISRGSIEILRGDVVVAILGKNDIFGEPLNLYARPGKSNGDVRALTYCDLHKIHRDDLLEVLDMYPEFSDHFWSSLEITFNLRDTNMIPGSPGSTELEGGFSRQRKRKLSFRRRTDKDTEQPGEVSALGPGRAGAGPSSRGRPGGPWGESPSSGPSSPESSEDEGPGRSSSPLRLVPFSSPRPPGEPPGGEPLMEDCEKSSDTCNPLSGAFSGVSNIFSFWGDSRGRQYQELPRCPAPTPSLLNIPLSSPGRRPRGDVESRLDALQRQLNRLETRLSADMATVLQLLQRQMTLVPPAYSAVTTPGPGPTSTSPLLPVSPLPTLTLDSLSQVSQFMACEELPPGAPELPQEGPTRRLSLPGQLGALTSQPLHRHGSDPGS
T1 sequence (P08684 whole entry): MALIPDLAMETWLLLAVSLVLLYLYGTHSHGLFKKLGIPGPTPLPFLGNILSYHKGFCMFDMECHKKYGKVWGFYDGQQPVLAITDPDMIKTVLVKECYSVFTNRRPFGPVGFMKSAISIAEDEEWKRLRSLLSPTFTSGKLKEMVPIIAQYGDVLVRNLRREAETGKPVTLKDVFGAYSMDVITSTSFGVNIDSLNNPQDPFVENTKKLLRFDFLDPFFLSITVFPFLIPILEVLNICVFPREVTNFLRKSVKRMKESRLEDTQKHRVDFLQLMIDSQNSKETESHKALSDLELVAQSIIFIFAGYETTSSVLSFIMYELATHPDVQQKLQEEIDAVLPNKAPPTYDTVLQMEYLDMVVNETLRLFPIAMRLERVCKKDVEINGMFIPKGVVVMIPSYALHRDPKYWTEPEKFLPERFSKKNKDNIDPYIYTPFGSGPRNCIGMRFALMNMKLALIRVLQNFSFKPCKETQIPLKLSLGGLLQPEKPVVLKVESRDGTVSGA
T2 sequence (P04629 33-796): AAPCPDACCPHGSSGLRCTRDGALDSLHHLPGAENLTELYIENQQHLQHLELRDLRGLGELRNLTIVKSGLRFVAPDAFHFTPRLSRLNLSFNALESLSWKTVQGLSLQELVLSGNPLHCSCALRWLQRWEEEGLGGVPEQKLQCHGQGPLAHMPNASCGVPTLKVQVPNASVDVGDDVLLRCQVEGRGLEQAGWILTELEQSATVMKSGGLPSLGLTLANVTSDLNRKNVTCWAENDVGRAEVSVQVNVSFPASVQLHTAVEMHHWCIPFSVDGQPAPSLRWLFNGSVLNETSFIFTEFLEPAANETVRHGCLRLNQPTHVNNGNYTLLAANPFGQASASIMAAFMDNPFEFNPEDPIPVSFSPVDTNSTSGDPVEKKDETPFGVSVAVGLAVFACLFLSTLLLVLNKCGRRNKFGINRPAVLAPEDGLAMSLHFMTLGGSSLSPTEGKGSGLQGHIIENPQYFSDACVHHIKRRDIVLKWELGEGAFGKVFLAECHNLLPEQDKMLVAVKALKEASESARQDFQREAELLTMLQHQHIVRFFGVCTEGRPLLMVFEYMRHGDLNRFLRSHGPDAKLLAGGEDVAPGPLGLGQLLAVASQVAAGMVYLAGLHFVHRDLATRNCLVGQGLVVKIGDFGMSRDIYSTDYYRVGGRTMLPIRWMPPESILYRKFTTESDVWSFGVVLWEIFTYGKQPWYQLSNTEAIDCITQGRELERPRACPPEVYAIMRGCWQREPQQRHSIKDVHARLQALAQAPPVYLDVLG

| Structure (SMILES) | IC50 (human TrkA; read-out: IC50_nM) [nM] | also measured |
| --- | --- | --- |
| COCC[C@@H]1C[C@@H](NC(=O)Nc2c(C)c(-c3cnc(OC)nc3)nn2-c2ccccc2)[C@H](c2ccnc(F)c2)N1C [Compound I-92] | – | IC50 (human TrkA; read-out: IC50 value): 0.74 nM; inhibition at 30 μmol/L (hERG channel (IKr)): 19.3% |
| COCCN1C[C@@H](NC(=O)Nc2c(C)c(-c3cnc4c(cnn4C)c3)nn2-c2ccccc2)[C@H](c2ccnc(F)c2)C1 [Compound I-159] | – | IC50 (human TrkA; read-out: IC50 value): 1 nM |
| COCCN1C[C@H](NC(=O)Nc2c(C)c(-c3cnc4c(cnn4C)c3)nn2-c2ccccc2)[C@@H](c2ccnc(F)c2)C1 [Compound I-160] | > 1000 | – |
| COCC[C@@H]1C[C@@H](NC(=O)Nc2c(C)c(-c3cnc(C)nc3)nn2-c2ccccc2)[C@H](c2ccnc(F)c2)C1 [Compound I-164] | – | mechanism based inhibition of CYP3A4 (shifted IC) (CYP3A4): Negative (When a shifted IC is 1.0 or less, this is defined as negative); IC50 (human TrkA; read-out: IC50 value): 1.8 nM |
| COCCN1C[C@@H](NC(=O)Nc2cc(-c3cnc4c(cnn4C)c3)nn2C)[C@H](c2ccc(F)c(F)c2)C1 [Compound I-167] | – | IC50 (human TrkA; read-out: IC50 value): 28 nM |
| COCC[C@@H]1C[C@@H](NC(=O)Nc2c(C)c(-c3cnc4c(c3)oc(=O)n4C)nn2-c2ccccc2)[C@H](c2ccnc(F)c2)N1C [Compound I-170] | < 100 | – |
| COCC[C@@H]1C[C@@H](NC(=O)Nc2c(C)c(-c3cnc4c(c3)nnn4C)nn2-c2ccccc2)[C@H](c2ccnc(F)c2)N1C [Compound I-171] | < 100 | – |
| COCC[C@@H]1C[C@@H](NC(=O)Nc2c(C)c(-c3cnc4c(cnn4C)c3)nn2-c2ccccc2)[C@H](c2ccc(F)c(F)c2)N1C [Compound I-172] | – | IC50 (human TrkA; read-out: IC50 value): 0.94 nM |
| COCC[C@@H]1C[C@@H](NC(=O)Nc2c(C)c(-c3cnc(C)nc3)nn2-c2ccccc2)[C@H](c2ccnc(F)c2)N1C [Compound I-173] | – | mechanism based inhibition of CYP3A4 (shifted IC) (CYP3A4): Negative (When a shifted IC is 1.0 or less, this is defined as negative); IC50 (human TrkA; read-out: IC50 value): 0.92 nM |
| CCOc1ncc(-c2nn(-c3ccccc3)c(NC(=O)N[C@@H]3C[C@@H](CCOC)N(C)[C@H]3c3ccc(F)c(F)c3)c2C)cn1 [Compound I-174] | < 100 | inhibition at 10 μmol/L (hERG channel (IKr)): 33.6% |
| COCC[C@@H]1C[C@@H](NC(=O)Nc2c(C)c(-c3ccc(OC)nc3)nn2-c2ccccc2)[C@H](c2ccnc(F)c2)N1C [Compound I-175] | < 100 | – |
| CNC(=O)c1cc(-c2nn(-c3ccccc3)c(NC(=O)N[C@@H]3C[C@@H](CCOC)N(C)[C@H]3c3ccnc(F)c3)c2C)cnc1OC [Compound I-176] | < 100 | – |
| COCC[C@@H]1C[C@@H](NC(=O)Nc2c3c(nn2-c2ccccc2)CCC3)[C@H](c2ccnc(F)c2)N1C [Compound I-177] | < 100 | – |
| COCC[C@@H]1C[C@@H](NC(=O)Nc2c(C)c(C)nn2-c2ccccc2)[C@H](c2ccnc(F)c2)N1C [Compound I-178] | < 100 | – |
| COCC[C@@H]1C[C@@H](NC(=O)Nc2c(C)c(-c3cnc(N4CC(OC)C4)nc3)nn2-c2ccccc2)[C@H](c2ccnc(F)c2)N1C [Compound I-180] | < 100 | – |

More lines, main results first:

| IC50 (human TrkA; read-out: IC50_nM) [nM] | Structure (SMILES) | also measured |
| --- | --- | --- |
| < 100 | COCCN1C[C@@H](NC(=O)Nc2c(C)c(-c3cnn(C)c3)nn2-c2ccccc2)[C@H](c2cnc(F)c(F)c2)C1 (racemic) [Compound I-5] | mechanism based inhibition of CYP3A4 (shifted IC) (CYP3A4): Negative (When a shifted IC is 1.0 or less, this is defined as negative); inhibition at 30 μmol/L (hERG channel (IKr)): 35.3% |
| < 100 | COCCN1C[C@@H](NC(=O)Nc2c(C)c(-c3cnc(CO)nc3)nn2-c2ccccc2)[C@H](c2ccccc2)C1 (racemic) [Compound I-10] | inhibition at 5 μmol/L (hERG channel (IKr)): 34.6% |
| < 100 | CCN1CCC(NC(=O)c2cc(-c3nn(-c4ccccc4)c(NC(=O)N[C@@H]4C[C@@H](CCOC)N(C)[C@H]4c4ccc(F)c(F)c4)c3C)ccn2)CC1 [Compound I-66] | inhibition at 5 μmol/L (hERG channel (IKr)): 22.6% |
| < 100 | CCN1CCC(NC(=O)c2cc(-c3nn(-c4ccccc4)c(NC(=O)N[C@@H]4C[C@@H](CCOC)C[C@H]4c4ccccc4)c3C)ccn2)CC1 [Compound I-67] | inhibition at 5 μmol/L (hERG channel (IKr)): 16.3% |
| < 100 | COCC[C@@H]1C[C@@H](NC(=O)Nc2c(C)c(-c3cnn(C)c3)nn2-c2ccccc2)[C@H](c2ccnc(F)c2)N1C [Compound I-68] | mechanism based inhibition of CYP3A4 (shifted IC) (CYP3A4): Negative (When a shifted IC is 1.0 or less, this is defined as negative); inhibition at 30 μmol/L (hERG channel (IKr)): 12.8% |
| < 100 | CCOc1ncc(-c2nn(-c3ccccc3)c(NC(=O)N[C@@H]3C[C@@H](CCOC)N(C)[C@H]3c3ccnc(F)c3)c2C)cn1 [Compound I-93] | inhibition at 5 μmol/L (hERG channel (IKr)): 11.6% |
| < 100 | COCCN1C[C@@H](NC(=O)Nc2c(C)c(-c3cnc4c(c3)c(N=S(C)(C)=O)nn4C)nn2-c2ccccc2)[C@H](c2ccc(F)c(F)c2)C1 [Compound I-163] | – |
| < 100 | COCC[C@@H]1C[C@@H](NC(=O)Nc2c(C)c(-c3cnc(OC)nc3)nn2-c2ccccc2)[C@H](c2ccnc(F)c2)C1 [Compound I-165] | – |
| < 100 | COCC[C@@H]1C[C@@H](NC(=O)Nc2c(C)c(-c3cnc(N4CC(O)C4)nc3)nn2-c2ccccc2)[C@H](c2ccnc(F)c2)C1 [Compound I-166] | – |
| < 100 | CCOc1ncc(-c2nn(-c3ccccc3)c(NC(=O)N[C@@H]3C[C@@H](CCOC)C[C@H]3c3ccc(F)c(F)c3)c2C)cn1 [Compound I-169] | inhibition at 10 μmol/L (hERG channel (IKr)): 21% |
